Laboratory results: the supplement of paper PMC10307832

Experiments:
Experiment in all cases: relative viability (nuclei count vs DMSO), 5 days (fraction); higher = more cells survive
[1] = compound: Cc1cnc(-c2cnc(NCCNc3ccc(C#N)cn3)nc2-c2ccc(Cl)cc2Cl)[nH]1
Method in brief: (§1)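 Viability was defined as treated-well nuclei divided by vehicle-well nuclei, with the median taken over replicate plates. Cells from lung cancer lines sat overnight at 37 °C in 1536-well plates, received five √10-spaced library-drug doses by pinning on vehicle-anchored plates, and grew 5 days without medium change before one-step fixation, permeabilisation and Hoechst staining, 4× imaging and MetaXpress nuclear counts. Only plates with control CV under 25% and at least one doubling were kept.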

Tivozanib = compound: COc1cc2nccc(Oc3ccc(NC(=O)Nc4cc(C)on4)c(Cl)c3)c2cc1OC [Tivozanib]
Method in brief: as §1

JQ1 = compound: Cc1sc2c(c1C)C(c1ccc(Cl)cc1)=N[C@@H](CC(=O)OC(C)(C)C)c1nnc(C)n1-2 [JQ1]
Method in brief: as §1

Cytarabine = compound: Nc1ccn([C@@H]2O[C@H](CO)[C@@H](O)[C@@H]2O)c(=O)n1 [Cytarabine]
Method in brief: as §1

Pimozide = compound: O=c1[nH]c2ccccc2n1C1CCN(CCCC(c2ccc(F)cc2)c2ccc(F)cc2)CC1 [Pimozide]
Method in brief: as §1

CPI-613 = compound: O=C(O)CCCCC(CCSCc1ccccc1)SCc1ccccc1 [CPI-613]
Method in brief: as §1

Docetaxel = compound: CC(=O)O[C@@]12CO[C@@H]1C[C@H](O)[C@@]1(C)C(=O)[C@H](O)C3=C(C)[C@@H](OC(=O)[C@H](O)[C@@H](NC(=O)OC(C)(C)C)c4ccccc4)C[C@@](O)([C@@H](OC(=O)c4ccccc4)[C@H]21)C3(C)C [Docetaxel]
Method in brief: as §1

Cell Line	relative viability ([1]; 0.08 µM)	relative viability ([1]; 0.253 µM)	relative viability ([1]; 0.8 µM)	relative viability ([1]; 2.53 µM)	relative viability (Tivozanib; 0.005 µM)	relative viability (Tivozanib; 0.01581 µM)	relative viability (Tivozanib; 0.05 µM)	relative viability (Tivozanib; 0.1581 µM)	relative viability (Tivozanib; 0.5 µM)	relative viability (JQ1; 0.04 µM)	relative viability (JQ1; 0.1265 µM)	relative viability (JQ1; 0.4 µM)	relative viability (JQ1; 1.265 µM)	relative viability (JQ1; 4 µM)	relative viability (Cytarabine; 0.005 µM)	relative viability (Cytarabine; 0.01581 µM)	relative viability (Cytarabine; 0.05 µM)	relative viability (Cytarabine; 0.1581 µM)	relative viability (Cytarabine; 0.5 µM)	relative viability (Pimozide; 0.08 µM)	relative viability (Pimozide; 0.253 µM)	relative viability (Pimozide; 0.8 µM)	relative viability (Pimozide; 2.53 µM)	relative viability (Pimozide; 8 µM)	relative viability (CPI-613; 5 µM)	relative viability (CPI-613; 15.81 µM)	relative viability (CPI-613; 50 µM)	relative viability (CPI-613; 158.11 µM)	relative viability (CPI-613; 500 µM)	relative viability (Docetaxel; 0.0002 µM)	relative viability (Docetaxel; 0.000632 µM)	relative viability (Docetaxel; 0.002 µM)	relative viability (Docetaxel; 0.006325 µM)	relative viability (Docetaxel; 0.02 µM)
NCI-H1355	0.995	0.874	0.939	0.907	0.941	0.938	1.05	0.702	0.897	0.963	0.951	0.917	0.629	0.535	0.89	0.922	0.758	0.489	0.302	0.968	0.964	0.954	0.956	0.907	0.963	0.95	0.949	0.735	0.0943	0.982	0.91	0.517	0.272	0.227
NCI-H1395	1.08	0.84	0.818	0.837	0.738	1.04	1	0.736	0.677	0.849	0.734	0.702	0.516	0.547	0.826	0.775	0.567	0.447	0.354	0.918	0.84	0.822	0.878	0.918	0.993	0.806	0.897	0.84	0.8	0.933	0.861	0.676	0.39	0.268
NCI-H1437	1.02	0.928	0.98	1	0.968	0.971	0.988	0.982	0.88	0.92	0.792	0.762	0.484	0.415	0.79	0.64	0.494	0.243	0.206	0.991	0.969	0.959	0.904	0.723	0.96	0.898	0.948	0.345	0.0955	0.914	0.765	0.457	0.281	0.158
NCI-H1563	1.03	0.999	0.934	1.09	0.958	1.05	0.975	0.95	1	0.898	0.785	0.778	0.648	0.661	0.936	0.974	0.971	0.835	0.771	0.952	1.03	0.93	0.869	0.867	1.05	0.957	0.996	0.531	0.307	0.881	0.974	1.08	0.744	0.593
NCI-H1623	1.06	0.957	0.921	0.947	1.05	0.986	1.03	0.714	0.986	0.961	0.82	0.908	0.557	0.54	0.828	0.592	0.41	0.25	0.216	0.675	0.916	0.902	0.939	0.932	1.07	0.99	1.13	0.743	0.867	0.889	0.957	0.601	0.424	0.264
NCI-H1648	1.11	0.801	0.951	0.76	0.838	0.918	1	0.886	0.716	0.89	0.753	0.434	0.294	0.184	0.69	0.734	0.813	0.443	0.611	1.01	0.641	0.822	0.8	0.972	0.818	0.768	1.11	0.393	0.577	0.861	0.925	0.494	0.269	0.179
NCI-H1650	1	0.812	0.904	0.761	0.786	0.964	0.941	0.946	0.779	0.808	0.68	0.578	0.217	0.21	0.793	0.633	0.514	0.224	0.225	0.719	0.893	0.883	0.887	0.809	0.877	0.776	0.942	0.137	0.0508	0.705	0.37	0.301	0.205	0.146
NCI-H1651	0.975	0.924	0.982	1.02	0.941	0.951	1.05	0.882	0.98	0.908	0.838	0.708	0.606	0.546	1.07	0.972	0.986	0.664	0.476	0.977	1	0.964	0.913	0.973	0.995	0.947	0.93	0.769	0.527	0.858	0.979	0.671	0.198	0.14
NCI-H1666	0.983	0.929	1.06	0.998	0.965	0.965	1.02	0.99	1.02	0.94	0.965	0.848	0.711	0.64	1	0.849	0.803	0.56	0.573	0.953	0.983	0.934	0.909	0.909	0.964	0.945	0.837	0.696	0.323	0.86	0.876	0.616	0.6	0.421
NCI-H1703	1.14	0.901	1.01	1.28	0.36	0.271	0.311	0.211	0.215	0.865	0.675	0.639	0.431	0.405	0.729	0.393	0.288	0.16	0.153	0.899	0.916	0.913	0.95	0.892	1.04	0.836	0.749	0.585	0.406	0.891	0.869	0.274	0.163	0.127
NCI-H1734	1.08	0.891	0.974	0.85	0.963	1.03	0.983	0.721	0.885	0.934	0.904	0.999	0.664	0.578	0.578	0.342	0.256	0.156	0.136	0.981	0.901	0.81	0.915	0.974	0.861	0.841	0.884	0.48	0.111	0.857	0.602	0.359	0.332	0.235
NCI-H1755	1.04	0.831	1.03	1.08	0.991	0.961	1.01	1.02	0.917	0.984	0.819	1.04	0.966	0.836	1.04	0.97	0.864	0.548	0.404	0.916	0.967	0.946	0.929	0.892	0.937	0.958	0.942	0.973	0.49	0.984	0.941	0.724	0.459	0.411
NCI-H1792	1.02	0.793	0.923	0.951	0.893	0.912	1.11	0.51	0.762	0.801	0.605	0.844	0.408	0.156	–	0.908	0.45	0.411	0.231	0.936	0.843	0.62	0.81	0.763	0.896	0.793	0.956	0.651	0.511	0.715	0.677	0.291	0.213	0.131
NCI-H1793	1.07	0.879	0.876	1.02	0.84	0.787	0.952	–	0.977	0.802	0.785	0.674	0.778	0.78	0.958	0.884	0.818	0.691	0.521	0.746	0.846	0.675	0.947	0.711	0.854	0.705	0.994	0.494	0.0301	1.01	0.852	0.351	0.285	0.186
NCI-H1915	1.02	–	0.973	0.919	0.959	0.971	0.984	0.896	0.75	0.975	0.702	0.904	0.427	0.269	0.916	0.916	0.854	0.609	0.503	0.972	0.919	0.631	0.928	0.925	1.01	0.996	0.97	0.949	0.0528	0.986	0.943	0.326	0.262	0.16
NCI-H1944	1.09	–	1.01	0.916	0.925	0.998	0.949	0.849	0.978	0.951	0.709	0.612	0.53	0.485	0.654	0.481	0.381	0.23	0.159	0.925	0.877	0.698	0.795	0.944	0.918	0.922	0.947	0.712	0.51	0.948	1	0.822	0.336	0.173
